Converted amounts (≈) assume the structure as drawn.
What was measured:
KB = experiment: Cytotoxicity against human KB cells; type: functional, cell-based
L1210 = experiment: Cytotoxicity against mouse L1210 cells; type: functional, cell-based

Row | SMILES | IC50 (KB) | IC50 (L1210)
1 | C=C1C[C@](OC)([C@H](O)C(=O)N[C@H]2OCO[C@H]3[C@@H]2O[C@H](C[C@H](O)CCC/C=C/C=C/C=C/C(=O)N[C@@H](CCCNC(=N)N)C(=O)O)C(C)(C)[C@@H]3OC)O[C@H](C)[C@@H]1C [ONNAMIDE A] | 3.6 ng/mL (≈ 4.53 nM) | 2 ng/mL (≈ 2.52 nM)
2 | C=C1C[C@](OC)([C@H](O)C(=O)N[C@H]2OCO[C@H]3[C@@H]2O[C@H](CC(=O)CCCCC/C=C/C=C/C(=O)N[C@@H](CCCNC(=N)N)C(=O)O)C(C)(C)[C@@H]3OC)O[C@H](C)[C@@H]1C [6,7-DIHYDRO-11-OXO-ONNAMIDE A] | 23 ng/mL (≈ 29 nM) | 16 ng/mL (≈ 20.2 nM)
3 | C=C1C[C@](OC)([C@H](O)C(=O)N[C@H]2OCO[C@H]3[C@@H]2O[C@H](CC(=O)CCC/C=C/C=C/C=C/C(=O)N[C@@H](CCCNC(=N)N)C(=O)O)C(C)(C)[C@@H]3OC)O[C@H](C)[C@@H]1C [11-OXO-ONNAMIDE A] | 13 ng/mL (≈ 16.4 nM) | 9.2 ng/mL (≈ 11.6 nM)
4 | C=C1C[C@](OC)([C@H](O)C(=O)N[C@H]2OCO[C@H]3[C@@H]2O[C@H](C[C@H](O)CCC/C=C/C=C\C=C\C(=O)N[C@@H](CCCNC(=N)N)C(=O)O)C(C)(C)[C@@H]3OC)O[C@H](C)[C@@H]1C [4Z-ONNAMIDE A] | 2.9 ng/mL (≈ 3.65 nM) | 1.5 ng/mL (≈ 1.89 nM)
5 | C=C1C[C@](OC)([C@H](O)C(=O)N[C@H]2OCO[C@H]3[C@@H]2O[C@H](C[C@H](O)CCCCC/C=C/C=C/C(=O)N[C@@H](CCCNC(=N)N)C(=O)O)C(C)(C)[C@@H]3OC)O[C@H](C)[C@@H]1C [6,7-DIHYDRO-ONNAMIDE A] | 5 ng/mL (≈ 6.28 nM) | 4.6 ng/mL (≈ 5.78 nM)

Reference: ChEMBL document CHEMBL1148173, “Three New Onnamide Congeners from the Okinawan Marine Sponge Theonella Sp” (J Nat Prod, 1993)
